Laboratory results from patent publication US7348427B2, “Antipathogenic benzamide compounds” (Genesoft Pharmaceuticals, Inc., priority 2001, dated 2008).

Experiments:
[1] = tested on: E. faecalis ATCC 29212; test: MIC, NCCLS broth microdilution assay; format: cell-based, Enterococcus faecalis; conditions: C = E. faecalis ATCC 29212
How it was run: (§1)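 MICs were determined by NCCLS broth microdilution following documents M7-A4 and M11-A4 (1997).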

[2] = tested on: S. pneumoniae ATCC 49619; test: MIC, NCCLS broth microdilution assay; format: cell-based, Streptococcus pneumoniae; conditions: H = S. pneumoniae ATCC 49619
How it was run: as §1

[3] = tested on: Candida albicans (ATCC 38247); test: Antifungal MIC assay; format: cell-based; conditions: B = C. albicans ATCC 38247
How it was run: (§2)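 Activity is measured as MIC in microtiter broth microdilution under NCCLS M7-A4, M11-A4 and M27-T guidance, with the yeast tested by the method in Murray's Manual of Clinical Microbiology.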

[4] = tested on: Staphylococcus epidermidis (ATCC 12228); test: MIC, NCCLS broth microdilution assay; format: cell-based; conditions: G = S. epidermidis ATCC 12228
How it was run: as §2

[5] = tested on: Enterococcus faecium (ATCC 51559, a vancomycin resistant strain (VRE)); test: MIC, NCCLS broth microdilution assay; format: cell-based; conditions: D = E. faecium ATCC 51559
How it was run: as §2

[6] = tested on: Staphylococcus aureus (ATCC 13709, a methicillin sensitive strain (MSSA)); test: MIC, NCCLS broth microdilution assay; format: cell-based; conditions: E = S. aureus ATCC 13709
How it was run: as §2

[7] = tested on: Staphylococcus aureus (ATCC 27660, a methicillin resistant strain (MRSA)); test: MIC, NCCLS broth microdilution assay; format: cell-based; conditions: F = S. aureus ATCC 27660
How it was run: as §2

[8] = tested on: Bacillus cereus (ATCC 11778); test: MIC, NCCLS broth microdilution assay; format: cell-based; conditions: A = B. cereus ATCC 11778
How it was run: as §2

[9] = tested on: Streptococcus pneumoniae (ATCC 51422, a penicillin resistant strain (PRSP)); test: MIC, NCCLS broth microdilution assay; format: cell-based; conditions: I = S. pneumoniae ATCC 51422
How it was run: as §2

SMILES	Minimum Inhibitory Concentration (MIC) [1]	Minimum Inhibitory Concentration (MIC) [2]	Minimum Inhibitory Concentration (MIC) [3]	Minimum Inhibitory Concentration (MIC) [4]	Minimum Inhibitory Concentration (MIC) [5]	Minimum Inhibitory Concentration (MIC) [6]	Minimum Inhibitory Concentration (MIC) [7]	Minimum Inhibitory Concentration (MIC) [8]	Minimum Inhibitory Concentration (MIC) [9]
Cn1cc(NC(=O)c2ccc(F)cc2F)cc1C(=O)Nc1cc(C(=O)Nc2cc(C(=O)N3CCC(O)CC3)n(C)c2)n(C)c1 [Compound B-26]	>32 µg/mL	>32 µg/mL	>32 µg/mL	>32 µg/mL	>32 µg/mL	>32 µg/mL	>32 µg/mL	>32 µg/mL	>32 µg/mL
Cn1cc(NC(=O)c2cc(NC(=O)c3cc(NC(=O)c4ccc(F)cc4F)cn3C)cn2C)cc1C(=O)NCCN1CCC(F)(F)CC1 [Compound B-27]	+++ (+++ = MIC ≦ 4)	+++ (+++ = MIC ≦ 4)	>32 µg/mL	+++ (+++ = MIC ≦ 4)	+++ (+++ = MIC ≦ 4)	+++ (+++ = MIC ≦ 4)	+++ (+++ = MIC ≦ 4)	+++ (+++ = MIC ≦ 4)	+++ (+++ = MIC ≦ 4)
Cn1cc(NC(=O)c2cc(NC(=O)c3cc(NC(=O)c4ccccc4F)cn3C)cn2C)cc1C(=O)NCCN1CCSCC1 [Compound B-41]	+++ (+++ = MIC ≦ 4)	+++ (+++ = MIC ≦ 4)	>32 µg/mL	+++ (+++ = MIC ≦ 4)	+++ (+++ = MIC ≦ 4)	+++ (+++ = MIC ≦ 4)	+++ (+++ = MIC ≦ 4)	+++ (+++ = MIC ≦ 4)	+++ (+++ = MIC ≦ 4)
Cn1cc(NC(=O)c2cc(NC(=O)c3ccc(Cl)cc3F)cn2C)cc1C(=O)NCCN1CCOCC1 [Compound B-48]	+++ (+++ = MIC ≦ 4)	+++ (+++ = MIC ≦ 4)	>32 µg/mL	+++ (+++ = MIC ≦ 4)	+++ (+++ = MIC ≦ 4)	+++ (+++ = MIC ≦ 4)	++ (++ = 4 < MIC < 12)	+++ (+++ = MIC ≦ 4)	+++ (+++ = MIC ≦ 4)
Cn1cc(NC(=O)c2cc(NC(=O)c3cc(NC(=O)c4ccc(Cl)cc4F)cn3C)cn2C)cc1C(=O)NCCN1CCSCC1 [Compound B-49]	+++ (+++ = MIC ≦ 4)	+++ (+++ = MIC ≦ 4)	>32 µg/mL	+++ (+++ = MIC ≦ 4)	+++ (+++ = MIC ≦ 4)	+++ (+++ = MIC ≦ 4)	+++ (+++ = MIC ≦ 4)	+++ (+++ = MIC ≦ 4)	+++ (+++ = MIC ≦ 4)
Cn1cc(NC(=O)c2cc(NC(=O)c3cc(NC(=O)c4ccc(Cl)c(Cl)c4)cn3C)cn2C)cc1C(=O)NCCN1CCOCC1 [Compound B-53]	+++ (+++ = MIC ≦ 4)	+++ (+++ = MIC ≦ 4)	>32 µg/mL	+++ (+++ = MIC ≦ 4)	+++ (+++ = MIC ≦ 4)	+++ (+++ = MIC ≦ 4)	+++ (+++ = MIC ≦ 4)	+++ (+++ = MIC ≦ 4)	+++ (+++ = MIC ≦ 4)
Cn1cc(NC(=O)c2cc(NC(=O)c3cc(NC(=O)c4ccc(Cl)cc4)cn3C)cn2C)cc1C(=O)NCCN1CCSCC1 [Compound B-58]	+++ (+++ = MIC ≦ 4)	+++ (+++ = MIC ≦ 4)	>32 µg/mL	++ (++ = 4 < MIC < 12)	+ (+ = 12 ≦ MIC ≦ 32)	+++ (+++ = MIC ≦ 4)	+++ (+++ = MIC ≦ 4)	+++ (+++ = MIC ≦ 4)	+++ (+++ = MIC ≦ 4)
Cn1cc(NC(=O)c2cc(NC(=O)c3cc(NC(=O)c4ccc(Cl)cc4NCCN4CCCCC4)cn3C)cn2C)cc1C(=O)NCCN1CCCCC1 [Compound B-64]	+++ (+++ = MIC ≦ 4)	+++ (+++ = MIC ≦ 4)	+++ (+++ = MIC ≦ 4)	+++ (+++ = MIC ≦ 4)	+++ (+++ = MIC ≦ 4)	+++ (+++ = MIC ≦ 4)	+++ (+++ = MIC ≦ 4)	+++ (+++ = MIC ≦ 4)	+++ (+++ = MIC ≦ 4)
Cn1cc(NC(=O)c2cc(NC(=O)c3cc(NC(=O)c4ccc(C#N)cc4)cn3C)cn2C)cc1C(=O)NCCN1CCSCC1 [Compound B-68]	+++ (+++ = MIC ≦ 4)	+++ (+++ = MIC ≦ 4)	>32 µg/mL	+++ (+++ = MIC ≦ 4)	+++ (+++ = MIC ≦ 4)	+++ (+++ = MIC ≦ 4)	+++ (+++ = MIC ≦ 4)	+++ (+++ = MIC ≦ 4)	+++ (+++ = MIC ≦ 4)
Cn1cc(NC(=O)c2cc(NC(=O)c3ccc(Cl)cc3F)c[nH]2)cc1C(=O)Nc1cc(C(=O)NCCN2CCCCC2)n(CCCO)c1 [Compound C-9]	+++ (+++ = MIC ≦ 4)	+++ (+++ = MIC ≦ 4)	+++ (+++ = MIC ≦ 4)	+++ (+++ = MIC ≦ 4)	+++ (+++ = MIC ≦ 4)	+++ (+++ = MIC ≦ 4)	+++ (+++ = MIC ≦ 4)	+++ (+++ = MIC ≦ 4)	+++ (+++ = MIC ≦ 4)
CN(C)CCCn1cc(NC(=O)c2cc(NC(=O)c3cc(NC(=O)c4ccc(F)cc4F)cn3C)cn2C)cc1C(=O)NCCN1CCCCC1 [Compound D-2]	+++ (+++ = MIC ≦ 4)	+++ (+++ = MIC ≦ 4)	+ (+ = 12 ≦ MIC ≦ 32)	+++ (+++ = MIC ≦ 4)	+++ (+++ = MIC ≦ 4)	+ (+ = 12 ≦ MIC ≦ 32)	+++ (+++ = MIC ≦ 4)	+++ (+++ = MIC ≦ 4)	+++ (+++ = MIC ≦ 4)
Cc1cc(NC(=O)c2cc(NC(=O)c3cc(NC(=O)c4ccc(Cl)cc4F)cn3C)cn2CCN2CCOCC2)sn1 [Compound D-8]	+++ (+++ = MIC ≦ 4)	+++ (+++ = MIC ≦ 4)	>32 µg/mL	+++ (+++ = MIC ≦ 4)	+++ (+++ = MIC ≦ 4)	+++ (+++ = MIC ≦ 4)	+++ (+++ = MIC ≦ 4)	+++ (+++ = MIC ≦ 4)	+++ (+++ = MIC ≦ 4)
Cc1cc(NC(=O)c2cc(NC(=O)c3cc(NC(=O)c4ccc(Cl)cc4F)c[nH]3)cn2CCN2CCOCC2)sn1 [Compound D-9]	+++ (+++ = MIC ≦ 4)	+++ (+++ = MIC ≦ 4)	>32 µg/mL	+++ (+++ = MIC ≦ 4)	+++ (+++ = MIC ≦ 4)	+++ (+++ = MIC ≦ 4)	+++ (+++ = MIC ≦ 4)	+++ (+++ = MIC ≦ 4)	+++ (+++ = MIC ≦ 4)
Cc1cc(NC(=O)c2cc(NC(=O)c3cc(NC(=O)c4ccc(Cl)cc4F)c[nH]3)cn2CCN2CCCC2)sn1 [Compound D-10]	+++ (+++ = MIC ≦ 4)	+++ (+++ = MIC ≦ 4)	++ (++ = 4 < MIC < 12)	+++ (+++ = MIC ≦ 4)	+++ (+++ = MIC ≦ 4)	+++ (+++ = MIC ≦ 4)	+ (+ = 12 ≦ MIC ≦ 32)	+++ (+++ = MIC ≦ 4)	+++ (+++ = MIC ≦ 4)
